Patent US11078193B2 (priority 2014, dated 2021)

Legend:
[1] = ATP based toxicity assay (ATPlite), HepG2 cell line; conditions: human, HepG2 cells, ATPlite (ATP levels)
Experimental: Alternatively, cytotoxicity was determined via an ATP-assay: The ATPlite kit from Perkin Elmer was used to assess compound cytotoxicity on the HepG2 cell line by determination of the ATP (adenosine triphosphate) levels. ATP is a marker for functional integrity and cell viability, because it is present in all metabolically active cells and any form of cell injury will result in a rapid decline in cellular ATP concentration. After compound incubation, 1 volume of ATPlite solution was added to the cells and the luminescence signal was measured.

[2] = Cytotoxicity, HepG2 cells, Resazurin assay; assay type: cell-based; conditions: human
[3] = system: HBV; assay: anti HBV activity, HepG2.117 inducibly HBV producing cell line (Tet-off), intracellular HBV DNA by realtime PCR; assay type: cell-based; conditions: Hepatitis B virus, 72 h, HepG2.117 cells, 3 days of treatment

Compound | CC50 at 4 days [1] [nM] | CC50 at 4 days [2] [nM] | EC50 [3] [nM]
Cc1cc(NC(=O)c2c(F)c(S(=O)(=O)N[C@H](C)C(C)(F)F)cn2C)cc(F)n1 [Compound 160, 4-[[(1R)-2,2-difluoro-1-methyl-propyl]sulfamoyl]-3-fluoro-N-(2-fluoro-6-methyl-4-pyridyl)-1-methyl-pyrrole-2-carboxamide] | > 25000 | > 25000 | 10
Cc1cc(NC(=O)c2c(F)c(S(=O)(=O)N[C@H](C)C(F)(F)F)cn2C)cc(Br)n1 [Compound 154, N-(2-bromo-6-methyl-4-pyridyl)-3-fluoro-1-methyl-4-[[(1R)-2,2,2-trifluoro-1-methyl-ethyl]sulfamoyl]pyrrole-2-carboxamide] | > 25000 | > 25000 | 80
Cc1cc(NC(=O)c2c(Cl)c(S(=O)(=O)N[C@H](C)C(C)(F)F)cn2C)cc(F)n1 [Compound 146, 3-chloro-4-[[(1R)-2,2-difluoro-1-methyl-propyl]sulfamoyl]-N-(2-fluoro-6-methyl-4-pyridyl)-1-methyl-pyrrole-2-carboxamide] | > 25000 | > 25000 | 30
Cc1cc(NC(=O)c2c(F)c(S(=O)(=O)NC3(C(F)(F)F)CCC3)cn2C)cc(F)n1 [Compound 172, 3-fluoro-N-(2-fluoro-6-methyl-4-pyridyl)-1-methyl-4-[[1-(trifluoromethyl)cyclobutyl]sulfamoyl]pyrrole-2-carboxamide] | > 25000 | > 25000 | 10
Cn1cc(S(=O)(=O)NC2(C)CC(F)(F)C2)c(F)c1C(=O)Nc1ccnc(C#N)c1 [Compound 53, N-(2-cyano-4-pyridyl)-4-[(3,3-difluoro-1-methyl-cyclobutyl)sulfamoyl]-3-fluoro-1-methyl-pyrrole-2-carboxamide] | > 25000 | > 25000 | 40
Cn1cc(S(=O)(=O)NC2(C)CC(F)(F)C2)c(F)c1C(=O)Nc1cc(F)nc(F)c1 [Compound 132, 4-[(3,3-difluoro-1-methyl-cyclobutyl)sulfamoyl]-N-(2,6-difluoro-4-pyridyl)-3-fluoro-1-methyl-pyrrole-2-carboxamide] | > 25000 | > 25000 | 10
Cc1cc(NC(=O)c2c(F)c(S(=O)(=O)NC3(C)CC(F)(F)C3)cn2C)cc(F)n1 [Compound 134, 4-[(3,3-difluoro-1-methyl-cyclobutyl)sulfamoyl]-3-fluoro-N-(2-fluoro-6-methyl-4-pyridyl)-1-methyl-pyrrole-2-carboxamide] | > 25000 | > 25000 | 10
Cc1cc(NC(=O)c2c(F)c(S(=O)(=O)N[C@H](C)C(C)(F)F)cn2C)cc(Cl)n1 [Compound 158, N-(2-chloro-6-methyl-4-pyridyl)-4-[[(1R)-2,2-difluoro-1-methyl-propyl]sulfamoyl]-3-fluoro-1-methyl-pyrrole-2-carboxamide] | > 25000 | > 25000 | 50
Cn1cc(S(=O)(=O)NC2(C)CC(F)(F)C2)c(Cl)c1C(=O)Nc1cc(F)nc(F)c1 [Compound 115, 3-chloro-4-[(3,3-difluoro-1-methyl-cyclobutyl)sulfamoyl]-N-(2,6-difluoro-4-pyridyl)-1-methyl-pyrrole-2-carboxamide] | > 25000 | > 25000 | 6
Cn1cc(S(=O)(=O)NC2(C)CC(F)(F)C2)c(F)c1C(=O)Nc1ccnc(C(F)F)c1 [Compound 83, 4-[(3,3-difluoro-1-methyl-cyclobutyl)sulfamoyl]-N-[2-(difluoromethyl)-4-pyridyl]-3-fluoro-1-methyl-pyrrole-2-carboxamide] | > 25000 | > 25000 | 10
C[C@@H](NS(=O)(=O)c1cn(C)c(C(=O)Nc2cc(F)nc(F)c2Cl)c1Cl)C(F)(F)F [Compound 185, 3-chloro-N-(3-chloro-2,6-difluoro-4-pyridyl)-1-methyl-4-[[(1R)-2,2,2-trifluoro-1-methyl-ethyl]sulfamoyl]pyrrole-2-carboxamide] | > 25000 | > 25000 | 740
C[C@@H](NS(=O)(=O)c1cn(C)c(C(=O)Nc2ccnc(Br)c2F)c1Cl)C(F)(F)F [Compound 139, N-(2-bromo-3-fluoro-4-pyridyl)-3-chloro-1-methyl-4-[[(1R)-2,2,2-trifluoro-1-methyl-ethyl]sulfamoyl]pyrrole-2-carboxamide] | > 25000 | > 25000 | 20
Cn1cc(S(=O)(=O)NC2(C)CC(F)(F)C2)c(F)c1C(=O)Nc1cc(Cl)nc(Cl)c1 [Compound 136, N-(2,6-dichloro-4-pyridyl)-4-[(3,3-difluoro-1-methyl-cyclobutyl)sulfamoyl]-3-fluoro-1-methyl-pyrrole-2-carboxamide] | 9500 |  | 20
C[C@@H](NS(=O)(=O)c1cn(C)c(C(=O)Nc2cc(F)nc(Cl)c2)c1F)C(F)(F)F [Compound 215, N-(2-chloro-6-fluoro-4-pyridyl)-3-fluoro-1-methyl-4-[[(1R)-2,2,2-trifluoro-1-methyl-ethyl]sulfamoyl]pyrrole-2-carboxamide] | > 25000 |  | 6
Cn1cc(S(=O)(=O)NC2(C(F)(F)F)CCC2)c(Cl)c1C(=O)Nc1ccnc(C(F)F)c1 [Compound 108, 3-chloro-N-[2-(difluoromethyl)-4-pyridyl]-1-methyl-4-[[1-(trifluoromethyl)cyclobutyl]sulfamoyl]pyrrole-2-carboxamide] | > 25000 | > 25000 | 20
Cn1cc(S(=O)(=O)NC2CCC2(F)F)c(F)c1C(=O)Nc1ccnc(Cl)c1 (centres unmarked) [Compound 174, N-(2-chloro-4-pyridyl)-4-[(2,2-difluorocyclobutyl)sulfamoyl]-3-fluoro-1-methyl-pyrrole-2-carboxamide] | > 25000 |  | 110
Cn1cc(S(=O)(=O)NC2(C(F)(F)F)COC2)c(F)c1C(=O)Nc1ccnc(Cl)c1F [Compound 212, N-(2-chloro-3-fluoro-4-pyridyl)-3-fluoro-1-methyl-4-[[3-(trifluoromethyl)oxetan-3-yl]sulfamoyl]pyrrole-2-carboxamide] | > 25000 |  | 60
Cc1cc(NC(=O)c2c(F)c(S(=O)(=O)N[C@H](C)C(F)(F)F)cn2C)cc(Cl)n1 [Compound 213, N-(2-chloro-6-methyl-4-pyridyl)-3-fluoro-1-methyl-4-[[(1R)-2,2,2-trifluoro-1-methyl-ethyl]sulfamoyl]pyrrole-2-carboxamide] | > 25000 |  | 50
Cn1cc(S(=O)(=O)NC2(C)CC(F)(F)C2)c(F)c1C(=O)Nc1ccnc(C#N)c1F [Compound 197, N-(2-cyano-3-fluoro-4-pyridyl)-4-[(3,3-difluoro-1-methyl-cyclobutyl)sulfamoyl]-3-fluoro-1-methyl-pyrrole-2-carboxamide] | > 25000 |  | 10
Cn1cc(S(=O)(=O)NC2(C(F)(F)F)CC2)c(F)c1C(=O)Nc1ccnc(Br)c1 [Compound 194, N-(2-bromo-4-pyridyl)-3-fluoro-1-methyl-4-[[1-(trifluoromethyl)cyclopropyl]sulfamoyl]pyrrole-2-carboxamide] | > 25000 |  | 20
